Laboratory results published in patent US4398023A, “β-1,3-Glucanpolyol, process for preparation thereof, and utilization thereof” (Meito Sangyo Kabushiki Kaisha, priority 1979, dated 1983).
One block for each substance: values may come before it.

Experiments:
[1] = Intrinsic viscosity [.eta.]; assay type: physicochemical; details: 25° C., aqueous solution; concentration in g/100 ml
Protocol: The intrinsic viscosity, as used in the present invention, is [.eta.] defined by the following equation. [formula] wherein .eta.sp =(.eta.-.eta.o)/.eta.o =/.eta.o -1 in which .eta. is the viscosity (at 25° C. in aqueous solution) of the solution and .eta.o is the viscosity of the solvent; and C is the concentration in g/100 ml.

Sarcoma 180 [2] = assay: Antitumor activity test using Sarcoma 180 in ICR-JCL mice; assay type: in vivo; details: intraperitoneal, once a day for 10 days, fifth week
Protocol: (1) An antitumor activity test using Sarcoma 180 in ICR-JCL mice
(§1) Starting 24 hours after the transplantation, the glucanpolyol of this invention was intraperitoneally administered once a day for 10 days. In the fifth week, the tumor was enucleated and its weight was compared with that in non-treated groups. The tumor inhibition ratio was calculated, and the number of tumors which completely regressed was observed.
(§2) The tumor inhibition ratio was calculated in accordance with the following equation. [formula] wherein C is the average weight of tumor in non-treated groups (10 mice per group),
(§3) T is the average weight of tumor in treated groups (10 mice per group).

Ehrlich Carcinoma = assay: Antitumor activity test using Ehrlich Carcinoma in ICR-JCL mice; assay type: in vivo; details: intraperitoneal, once a day for 10 days, fifth week
Protocol: as §1, §2, §3
(2) An antitumor activity test using Ehrlich Carcinoma in ICR-JCL mice

Meth-A = assay: Antitumor activity test using Meth-A in Balb/c mice; assay type: in vivo; details: intraperitoneal, once a day for 10 days, fifth week
Protocol: as §1, §2, §3
(3) An antitumor activity test using Meth-A in Balb/c mice

Sarcoma 180 [3] = assay: Antitumor activity test using Sarcoma 180 in C3H/He mice; assay type: in vivo; details: intraperitoneal, once a day for 10 days, fifth week
Protocol: as §1, §2, §3
(4) An antitumor activity test using Sarcoma 180 in C3H/He mice

Sarcoma 180 [4] = assay: Antitumor activity test using Sarcoma 180 in Balb/c mice; assay type: in vivo; details: intraperitoneal, once a day for 10 days, fifth week
Protocol: as §1, with “The ascites cells of Sarcoma 180 were inoculated peritoneally in ICR-JCL mice having a body weight of about 23 g. […] Starting” for “Starting”
as §2, §3
(5) An antitumor activity test using Sarcoma 180 in Balb/c mice
Six million Sarcoma 180 cells were transplanted into the subcutaneous portion of the right inguinal part of the Balb/c mice having a body weight of about 23 g, and then, the same operation as in (1 ) above was performed.

Sarcoma 180 [5] = assay: Antitumor activity test using Sarcoma 180 in C57 BL/6 mice; assay type: in vivo; details: intraperitoneal, once a day for 10 days, fifth week
Protocol: as §1, with “The ascites cells of Sarcoma 180 were inoculated peritoneally in ICR-JCL mice having a body weight of about 23 g. […] Starting” for “Starting”
as §2, §3
(6) An antitumor activity test using Sarcoma 180 in C57 BL/6 mice
Six million Sarcoma 180 cells were transplanted into the subcutaneous portion of the right inguinal part of the C57 BL/6 mice having a body weight of about 20 g, and then the same operation as in (1) above was performed.

Sarcoma 180 [6] = assay: Antitumor activity test using Sarcoma 180 in ddY mice; assay type: in vivo; details: intraperitoneal, once a day for 10 days, fifth week
Protocol: as §1, with “The ascites cells of Sarcoma 180 were inoculated peritoneally in ICR-JCL mice having a body weight of about 23 g. […] Starting” for “Starting”
as §2, §3
(7) An antitumor activity test using Sarcoma 180 in ddY mice
Six million Sarcoma 180 cells were transplanted into the subcutaneous portion of the right inguinal part of ddY mice having a body weight of about 23 g, and then, the same operation as in (1) above was performed.

CCM-adenocarcinoma = assay: Antitumor activity test using CCM-adenocarcinoma in ICR-JCL mice; assay type: in vivo; details: intraperitoneal, once a day for 10 days, fifth week
Protocol: as §1, with “The ascites cells of Sarcoma 180 were inoculated peritoneally in ICR-JCL mice having a body weight of about 23 g. […] Starting” for “Starting”
as §2, §3
(8) An antitumor activity test using CCM-adenocarcinoma in ICR-JCL mice
Six million CCM-adenocarcinoma cells were transplanted into the subcutaneous portion of the right inguinal part of ICR-JCL mice having a body weight of about 23 g, and then the same operation as in (1) above was performed.

[7] = test system: NTF-reticulum cell sarcoma; assay: Antitumor activity test using NTF-reticulum cell sarcoma in ICR-JCL mice; assay type: in vivo; details: intraperitoneal, once a day for 10 days, fifth week
Protocol: as §1, with “The ascites cells of Sarcoma 180 were inoculated peritoneally in ICR-JCL mice having a body weight of about 23 g. […] Starting” for “Starting”
as §2, §3
(9) An antitumor activity test using NTF-reticulum cell sarcoma in ICR-JCL mice
Six million NFT-reticulum cell sarcoma cells were transplanted into the subcutaneous portion of the right inguinal part of ICR-JCL mice having a body weight of about 23 g, and then, the same operation as in (1) above was performed.

ICR-JCL mice = assay: Toxicity (LD50) on ICR-JCL mice; assay type: in vivo
Text: The toxicity of the β-1,3-glucanpolyol of this invention is very low, and the LD50 values of the products obtained in Examples 1, 4 and 5, for example, on ICR-JCL mice are as shown in Table 10.

Intrinsic viscosity [.eta.] [1]: 8.55 dL/g
Substance: β-1,3-glucanpolyol [Example 7]

Substance: β-1,3-glucanpolyol [Example 4]
Average weight of tumor (Sarcoma 180 [2]; 1 mg/kg/day): 0.92 g
Complete regression (Sarcoma 180 [2]; 1 mg/kg/day): 6/10
Tumor inhibition ratio (Sarcoma 180 [2]; 1 mg/kg/day): 91.6%
Average weight of tumor (Sarcoma 180 [2]; 5 mg/kg/day): 0.41 g
Complete regression (Sarcoma 180 [2]; 5 mg/kg/day): 8/10
Tumor inhibition ratio (Sarcoma 180 [2]; 5 mg/kg/day): 96.3%
Average weight of tumor (Ehrlich Carcinoma; 1 mg/kg/day): 1.48 g
Complete regression (Ehrlich Carcinoma; 1 mg/kg/day): 6/10
Tumor inhibition ratio (Ehrlich Carcinoma; 1 mg/kg/day): 90.1%
Average weight of tumor (Ehrlich Carcinoma; 5 mg/kg/day): 0.97 g
Complete regression (Ehrlich Carcinoma; 5 mg/kg/day): 6/10
Tumor inhibition ratio (Ehrlich Carcinoma; 5 mg/kg/day): 93.5%
Average weight of tumor (Meth-A; 5 mg/kg/day): 7.99 g
Complete regression (Meth-A; 5 mg/kg/day): 0/10
Tumor inhibition ratio (Meth-A; 5 mg/kg/day): 40.2%
Average weight of tumor (Meth-A; 20 mg/kg/day): 9.33 g
Complete regression (Meth-A; 20 mg/kg/day): 0/10
Tumor inhibition ratio (Meth-A; 20 mg/kg/day): 30.2%
Average weight of tumor (Sarcoma 180 [3]; 1 mg/kg/day): 5.62 g
Complete regression (Sarcoma 180 [3]; 1 mg/kg/day): 0/10
Tumor inhibition ratio (Sarcoma 180 [3]; 1 mg/kg/day): 56.5%
Average weight of tumor (Sarcoma 180 [3]; 5 mg/kg/day): 4.93 g
Complete regression (Sarcoma 180 [3]; 5 mg/kg/day): 1/10
Tumor inhibition ratio (Sarcoma 180 [3]; 5 mg/kg/day): 61.8%
Average weight of tumor (Sarcoma 180 [4]; 1 mg/kg/day): 0 g
Complete regression (Sarcoma 180 [4]; 1 mg/kg/day): 10/10
Tumor inhibition ratio (Sarcoma 180 [4]; 1 mg/kg/day): 100%
Average weight of tumor (Sarcoma 180 [4]; 5 mg/kg/day): 0 g
Complete regression (Sarcoma 180 [4]; 5 mg/kg/day): 10/10
Tumor inhibition ratio (Sarcoma 180 [4]; 5 mg/kg/day): 100%
Average weight of tumor (Sarcoma 180 [5]; 1 mg/kg/day): 0.13 g
Complete regression (Sarcoma 180 [5]; 1 mg/kg/day): 9/10
Tumor inhibition ratio (Sarcoma 180 [5]; 1 mg/kg/day): 96.4%
Average weight of tumor (Sarcoma 180 [5]; 5 mg/kg/day): 0.12 g
Complete regression (Sarcoma 180 [5]; 5 mg/kg/day): 9/10
Tumor inhibition ratio (Sarcoma 180 [5]; 5 mg/kg/day): 96.6%
Average weight of tumor (Sarcoma 180 [6]; 1 mg/kg/day): 0.25 g
Complete regression (Sarcoma 180 [6]; 1 mg/kg/day): 8/10
Tumor inhibition ratio (Sarcoma 180 [6]; 1 mg/kg/day): 97.7%
Average weight of tumor (Sarcoma 180 [6]; 5 mg/kg/day): 0.54 g
Complete regression (Sarcoma 180 [6]; 5 mg/kg/day): 8/10
Tumor inhibition ratio (Sarcoma 180 [6]; 5 mg/kg/day): 95.2%
Average weight of tumor (CCM-adenocarcinoma; 1 mg/kg/day): 0 g
Complete regression (CCM-adenocarcinoma; 1 mg/kg/day): 10/10
Tumor inhibition ratio (CCM-adenocarcinoma; 1 mg/kg/day): 100%
Average weight of tumor (CCM-adenocarcinoma; 5 mg/kg/day): 0.23 g
Complete regression (CCM-adenocarcinoma; 5 mg/kg/day): 8/10
Tumor inhibition ratio (CCM-adenocarcinoma; 5 mg/kg/day): 98.1%
Average weight of tumor ([7]; 1 mg/kg/day): 0.67 g
Complete regression ([7]; 1 mg/kg/day): 8/10
Tumor inhibition ratio ([7]; 1 mg/kg/day): 88.3%
Average weight of tumor ([7]; 5 mg/kg/day): 0.83 g
Complete regression ([7]; 5 mg/kg/day): 6/10
Tumor inhibition ratio ([7]; 5 mg/kg/day): 85.6%
Toxicity after ultrasonic treatment (ICR-JCL mice; effect of ultrasonic treatment): lower toxicity
LD50 Intraperitoneal administration (ICR-JCL mice; intraperitoneal, ICR-JCL mice): above 5 g/kg
LD50 Intravenous administration (ICR-JCL mice; intravenous, ICR-JCL mice): 1500 mg/kg
LD50 Oral administration (ICR-JCL mice; oral, ICR-JCL mice): above 20 g/kg
Intrinsic viscosity [.eta.] [1]: 3.27 dL/g
